ChEMBL document CHEMBL1201862, “PubChem BioAssay data set” (2004)
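48-hour exposure; five concentrations; linearly interpolated endpoints. GI50: concentration for 50% inhibition of growth.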 Calls of active or inactive are those of the source. Cut-off read from the data, not from the text of the source: active = GI50 up to about 1.1 µM and inactive = higher.

Experiments:
Test in all cases: NCI-60 cell line screen, 48 h
RPMI-8226 = system: RPMI-8226
SNB-75 = system: SNB-75
SNB-19 = system: SNB-19
OVCAR-4 = system: OVCAR-4
SK-MEL-28 = system: SK-MEL-28
SW-620 = system: SW-620
HCC 2998 = system: HCC 2998
SF-268 = system: SF-268
HOP-62 = system: HOP-62
UACC-62 = system: UACC-62
KM12 = system: KM12
SK-MEL-2 = system: SK-MEL-2
NCI-H23 = system: NCI-H23
OVCAR-3 = system: OVCAR-3
HL-60 = system: HL-60
HCT-15 = system: HCT-15
NCI-H460 = system: NCI-H460
M14 = system: M14
RXF 393 = system: RXF 393
COLO 205 = system: COLO 205

| Structure (SMILES) | GI50 (RPMI-8226) | GI50 (SNB-75) | GI50 (SNB-19) | GI50 (OVCAR-4) | GI50 (SK-MEL-28) | GI50 (SW-620) | GI50 (HCC 2998) | GI50 (SF-268) | GI50 (HOP-62) | GI50 (UACC-62) | GI50 (KM12) | GI50 (SK-MEL-2) | GI50 (NCI-H23) | GI50 (OVCAR-3) | GI50 (HL-60) | GI50 (HCT-15) | GI50 (NCI-H460) | GI50 (M14) | GI50 (RXF 393) | GI50 (COLO 205) |
| --- | --- | --- | --- | --- | --- | --- | --- | --- | --- | --- | --- | --- | --- | --- | --- | --- | --- | --- | --- | --- |
| NC(Cc1ccc2nc3c4ccccc4c(=O)cc-3oc2c1)C(=O)O (stereo not given) | > 100 µM (inactive) | 65.8 µM (inactive) | > 100 µM (inactive) | > 100 µM (inactive) | > 100 µM (inactive) | > 100 µM (inactive) | > 100 µM (inactive) | > 100 µM (inactive) | > 100 µM (inactive) | 32.7 µM (inactive) | > 100 µM (inactive) | 53.3 µM (inactive) | 17.6 µM (inactive) | 74.1 µM (inactive) | > 100 µM (inactive) | > 100 µM | > 100 µM (inactive) | 25.3 µM (inactive) | > 100 µM (inactive) | 20.9 µM (inactive) |
| CCN(CC)C(=O)C1=C(C)NC(C)=C(C(=O)N(CC)CC)C1 | > 100 µM (inactive) | 14.5 µM (inactive) | > 100 µM (inactive) | > 100 µM (inactive) | > 100 µM (inactive) | > 100 µM (inactive) | > 100 µM (inactive) | 53 µM (inactive) | > 100 µM (inactive) | > 100 µM (inactive) | > 100 µM (inactive) | > 100 µM (inactive) | > 100 µM (inactive) | > 100 µM (inactive) | > 100 µM (inactive) | > 100 µM | > 100 µM (inactive) | > 100 µM (inactive) | > 100 µM (inactive) | > 100 µM (inactive) |
| COc1ccccc1-n1cnc2c1=NC(C)(C)NC=2C(N)=O | > 100 µM (inactive) | > 100 µM (inactive) | > 100 µM (inactive) | > 100 µM (inactive) | > 100 µM (inactive) | > 100 µM (inactive) | > 100 µM (inactive) | > 100 µM (inactive) | > 100 µM (inactive) | > 100 µM (inactive) | > 100 µM (inactive) | > 100 µM (inactive) | > 100 µM (inactive) | > 100 µM (inactive) | > 100 µM (inactive) | > 100 µM | > 100 µM (inactive) | > 100 µM (inactive) | > 100 µM (inactive) | > 100 µM (inactive) |
| Cc1ccc(NCCN(C)C)c2c(=O)c3cc(O)ccc3sc12 | 2.57 µM (inactive) | 1.34 µM (inactive) | 2.64 µM (inactive) | 7.21 µM (inactive) | 6.01 µM (inactive) | 1.19 µM (inactive) | 3.79 µM (inactive) | 4.35 µM (inactive) | 0.586 µM (active) | 2.95 µM (inactive) | 4.28 µM (inactive) | 20.5 µM (inactive) | 2.22 µM (inactive) | 9.33 µM (inactive) | 0.416 µM (active) | 2.69 µM | 0.0516 µM (active) | 4.88 µM (inactive) | 1.22 µM (inactive) | 8.85 µM (inactive) |
| O=C(O)CCCSc1nc2ccccc2s1 | > 100 µM (inactive) | > 100 µM (inactive) | > 100 µM (inactive) | > 100 µM (inactive) | > 100 µM (inactive) | > 100 µM (inactive) | > 100 µM (inactive) | > 100 µM (inactive) | > 100 µM (inactive) | > 100 µM (inactive) | > 100 µM (inactive) | > 100 µM (inactive) | > 100 µM (inactive) | > 100 µM (inactive) | > 100 µM (inactive) | > 100 µM | > 100 µM (inactive) | > 100 µM (inactive) | > 100 µM (inactive) | > 100 µM (inactive) |
| CCOC(=O)C1Oc2ccc([N+](=O)[O-])cc2C1(C)O (stereo not given) | > 100 µM (inactive) | > 100 µM (inactive) | > 100 µM (inactive) | > 100 µM (inactive) | > 100 µM (inactive) | > 100 µM (inactive) | > 100 µM (inactive) | > 100 µM (inactive) | > 100 µM (inactive) | > 100 µM (inactive) | > 100 µM (inactive) | > 100 µM (inactive) | > 100 µM (inactive) | > 100 µM (inactive) | > 100 µM (inactive) | > 100 µM | > 100 µM (inactive) | > 100 µM (inactive) | > 100 µM (inactive) | > 100 µM (inactive) |
| CCCCCC(/C=C/C1CCC(=O)C1)OCOCCOC (stereo not given) | 21.6 µM (inactive) | 11.5 µM (inactive) | > 53.3 µM (inactive) | 47.9 µM (inactive) | > 77.3 µM (inactive) | 29.8 µM (inactive) | 64.4 µM (inactive) | 29.3 µM (inactive) | > 100 µM (inactive) | 36.6 µM (inactive) | 45.9 µM (inactive) | 64.6 µM (inactive) | 55.2 µM (inactive) | 41.4 µM (inactive) | 42.1 µM (inactive) | 31.1 µM | 67.9 µM (inactive) | 34 µM (inactive) | 34 µM (inactive) | 48.8 µM (inactive) |
| CC(=O)c1cccc(NC(=O)C(=O)NNc2nnc(S)n2N)c1 | 13.6 µM (inactive) | 7.29 µM (inactive) | 6.25 µM (inactive) | 10.1 µM (inactive) | 6.89 µM (inactive) | 7.73 µM (inactive) | 14.1 µM (inactive) | 9.62 µM (inactive) | 12.1 µM (inactive) | 1.89 µM (inactive) | 11.1 µM (inactive) | 3.06 µM (inactive) | 3.18 µM (inactive) | 3.99 µM (inactive) | 3.18 µM (inactive) | 4.9 µM | 4.17 µM (inactive) | 1.89 µM (inactive) | 10.4 µM (inactive) | 14.2 µM (inactive) |
| CC1(c2cccc(C(F)(F)F)c2)CC(c2cccc(C(F)(F)F)c2)=C(C#N)C(=C(C#N)C#N)N1 (stereo not given) | 16.4 µM (inactive) | 19.3 µM (inactive) | 19.4 µM (inactive) | 16 µM (inactive) | 16 µM (inactive) | 15 µM (inactive) | 17.2 µM (inactive) | 15 µM (inactive) | 17.1 µM (inactive) | 16.7 µM (inactive) | 16.5 µM (inactive) | 19.6 µM (inactive) | 19.3 µM (inactive) | 11.9 µM (inactive) | 15.5 µM (inactive) | 16.4 µM | 19.3 µM (inactive) | 20.2 µM (inactive) | 16.8 µM (inactive) | 14.6 µM (inactive) |
| C[n+]1c2ccc(Cl)cc2nc2cc(-c3ccccc3)ccc21 | 1.93 µM (inactive) | 24.7 µM (inactive) | 5.12 µM (inactive) | 18.5 µM (inactive) | 20.1 µM (inactive) | 4.7 µM (inactive) | 4.95 µM (inactive) | 14.7 µM (inactive) | 23 µM (inactive) | 18.4 µM (inactive) | 4.65 µM (inactive) | 19.8 µM (inactive) | 5.41 µM (inactive) | 2.03 µM (inactive) | 3.06 µM (inactive) | 7.76 µM | 14.9 µM (inactive) | 4.65 µM (inactive) | 26.1 µM (inactive) | 3.58 µM (inactive) |
